The values below come from patent US4424229A, “Fluorine containing 2,4,5-triphenylimidazoles” (A/S Dumex (Dumex Ltd.), priority 1982, dated 1984).

Data set [1] has as its system acetic acid induced writhing movements. Briefly: Writhing test in mice (acetic acid). The data set is classed as in vivo, mice (NMRI/BOM). To be noted: Mus musculus, po, 20 min, read-out: Analgesic ED50, writhing test. As for the experimental part:
(§1) Tests for analgesic activity
(§2) 1. Writhing test in mice. (SPF females of the strain NMRI/BOM, weighing 20-25 g). The test substance was administered by gavage 1/2 hour prior to an intraperitoneal injection of acetic acid. The number of writhing movements in 20 minutes was counted.
On the technique in general: In writhing tests, fewer writhes than in controls are read as antinociception.

For data set [2], the system named is arachidonic acid induced aggregation of human platelet rich plasma. Briefly: Platelet aggregation inhibition test (arachidonic acid induced, human platelet rich plasma). To be noted: AA = arachidonic acid. The format is cell-based. As to the method:
Platelet aggregation inhibition test The ability of the test substance to inhibit arachidonic acid induced aggregation of human platelet rich plasma was tested in a HU aggregometer (from H. Upchurch & Co. Ltd.).

For data set [3], the system named is arachidonic acid induced bronchoconstrictions. Briefly: Inhibition of arachidonic acid induced bronchoconstrictions in guinea-pigs. The data set is classed as in vivo. To be noted: Cavia porcellus, read-out: Inhibition of arachidonic acid induced bronchoconstrictions ID50. As to the method: Inhibition of arachidonic acid (AA) induced bronchoconstrictions in guinea-pigs. Test compounds were given intravenously to anaesthetized guinea-pigs 5 min. before intravenous injection of AA (200-500 μg/kg). Bronchial pressure was measured and percent inhibition calculated as compared to the mean of 3 preceding AA-induced control constrictions obtained after injection of vehicle in the same animal.

The next data set has as its target PG-synthetase. Briefly: Prostaglandin-synthetase inhibition test (Vane). The data set is classed as biochemical. To be noted: AA = arachidonic acid.
Another data set in a line: in vivo. To be noted: mouse; for LD50 at 168 h: po, read-out: Acute toxicity LD50. As for the experimental part:
Test for acute toxicity (LD50) in mice
The test substance was administered by gavage.

The nature of data set [4]: Ulcerogenic activity in rats. The format is in vivo, rats (Sprague-Dawley). To be noted: rat, in vivo, po. As for the experimental part:
(§3) Ulcerogenic activity in rats
(§4) SPF males of the strain Sprague-Dawley weighing 180-250 g were used. 5 hours after administration by gavage of the test substance the rates were killed by an overdose of ether. The stomachs were removed and opened along the greater curvature. The number of ulcers was assessed and compared to control rats.

Data set [5] concerns brewer's yeast injected rat paw. The data set is described as follows: Randall-Selitto test in rats (analgesia-meter, brewer's yeast paw). To be noted: po, gavage 2 hours after brewer's yeast in paw, read-out: Analgesic ED50, analgesia-meter. The data set is classed as in vivo, rats (Sprague-Dawley). As to the method:
Tests for analgesic activity 2. Randall-Selitto test in rats. (SPF males of the strain Sprague-Dawley, weighing 90-100 g). The test was performed on the whole as described by Randall and Selitto: Arch. Int. Pharmacodyn. Ther. 111, 409 (1957).

A short description of data set [6]: Tests for analgesic activity (general). The data set is classed as in vivo, mice; rats. To be noted: compared with the compounds of the invention, or general. As to the method: as §1, §2
2. Randall-Selitto test in rats. (SPF males of the strain Sprague-Dawley, weighing 90-100 g). The test was performed on the whole as described by Randall and Selitto: Arch. Int. Pharmacodyn. Ther. 111, 409 (1957). An analgesia-meter of the make Ugo Basile was used and the test substance was administered by gavage 2 hours after injection of a suspension of brewer's yeast into the rat paw.

A further data set relates to stomach ulcers. Briefly: Ulcerogenic activity in rats. To be noted: rats, gavage, 5 hours. The data set is classed as in vivo, rats (Sprague-Dawley). As to the method: as §3, §4
The subject of data set [7] is carrageenin-injected rat paw. The data set is described as follows: Test for antiinflammatory activity in rats (carrageenin paw). The format is in vivo, rats (Sprague-Dawley). To be noted: po, read-out: Antiinflammatory test ED50. As to the method:
Test for antiinflammatory activity in rats SPF males of the strain Sprague-Dawley, weighing~150 g were used. The test was performed according to Winter et al.: Proc. Soc. […] The test substance was given by gavage 1 hour prior to injection of a carrageenin-suspension into the rat paw.
On the technique in general: Carrageenan injected into the paw causes an acute inflammation.

The mark [8] stands for this setting: mice, gavage 1/2 hour before i.p. acetic acid, writhings in 20 minutes.
Setting [9] is: guinea-pigs, intravenous, 5 min before i.v. AA (200-500 μg/kg).

Read-outs that look alike come from different tables or passages of the source. Some results are limits rather than exact numbers.

The term LD50 denotes the dose expected to kill half of the subjects tested.

Regarding `COc1ccc(-c2nc(-c3ccc(F)cc3)n(CCC(=O)O)c2-c2ccc(OC)cc2)cc1` [Compound 1, 1-(2-Carboxyethyl)-2-(4-fluorphenyl)-4,5-bis(4-methoxyphenyl)imidazole, reference compound], in data set [1] (setting [8]), the ED50 is over 200 mg/kg.

`COc1ccc(-c2nc(-c3ccccc3F)[nH]c2-c2ccc(OC)cc2)cc1` [Compound 2, 2-(2-Fluorphenyl)-4,5-bis(4-methoxyphenyl)imidazole]: in data set [2], the “Inhibition of platelet aggregation IC100” value is on record as 0.024 μg/190 μg AA. The ED50 in [3] (setting [9]) was found to be 10.6 µg/kg; in [1] (setting [8]), 15 mg/kg. Besides, the “Inhibition of PG-synthetase IC50” value on PG-synthetase was determined as 0.23 μg/10 μg AA.

Consider `COc1ccc(-c2nc(-c3cccc(F)c3)[nH]c2-c2ccc(OC)cc2)cc1` [Compound 3, 2-(3-Fluorphenyl)-4,5-bis(4-methoxyphenyl)imidazole], for which the “Inhibition of platelet aggregation IC100” value in [2] is listed as 0.12 μg/190 μg AA. For the same compound, the ED50 in data set [3] (setting [9]) was 3.6 µg/kg; in data set [1] (setting [8]), 3.2 mg/kg. Further, the “Inhibition of PG-synthetase IC50” value on PG-synthetase was 0.21 μg/10 μg AA.

For `COc1ccc(-c2nc(-c3ccc(F)cc3)[nH]c2-c2ccc(OC)cc2)cc1` [Compound 4, 2-(4-Fluorphenyl)-4,5-bis(4-methoxyphenyl)imidazole], the “Inhibition of platelet aggregation IC100” value in [2] was determined as 0.048 μg/190 μg AA. For the same compound, the values for the ED50 in data set [3] (setting [9]) and in data set [1] (setting [8]) were 4.7 µg/kg and 5 mg/kg, respectively. In addition, on PG-synthetase, the “Inhibition of PG-synthetase IC50” value is 0.18 μg/10 μg AA.

For `COc1ccc(-c2nc(-c3cccc(F)c3F)[nH]c2-c2ccc(OC)cc2)cc1` [Compound 5, 2-(2,3-Difluorphenyl)-4,5-bis(4-methoxyphenyl)imidazole], the “Inhibition of platelet aggregation IC100” value in data set [2] was 0.024 μg/190 μg AA. The ED50 is 8.7 µg/kg in [3] (setting [9]) and 4.6 mg/kg in data set [1] (setting [8]). At PG-synthetase, the “Inhibition of PG-synthetase IC50” value is reported as 0.21 μg/10 μg AA. Also, the LD50 at 168 h in “in vivo” turned out to be 3120 mg/kg.

Turning to `COc1ccc(-c2nc(-c3ccc(F)cc3F)[nH]c2-c2ccc(OC)cc2)cc1` [Compound 6, 2-(2,4-Difluorphenyl)-4,5-bis(4-methoxyphenyl)imidazole], the “Inhibition of platelet aggregation IC100” value in data set [2] is given as 0.12 μg/190 μg AA. Further, the ED50 in data set [3] (setting [9]) is 2.1 µg/kg; in data set [1] (setting [8]), 4 mg/kg. Also, the “Inhibition of PG-synthetase IC50” value at PG-synthetase worked out at 0.27 μg/10 μg AA. The TD50 at 5 h in data set [4] amounted to 1580 mg/kg.

With `COc1ccc(-c2nc(-c3cc(F)ccc3F)[nH]c2-c2ccc(OC)cc2)cc1` [Compound 7, 2-(2,5-Difluorphenyl)-4,5-bis(4-methoxyphenyl)imidazole], the “Inhibition of platelet aggregation IC100” value in [2] worked out at 0.024 μg/190 μg AA. For the same compound, the ED50 in data set [3] (setting [9]) stood at 2.4 µg/kg; in [1] (setting [8]) it was 16 mg/kg. For the same compound, at PG-synthetase, the “Inhibition of PG-synthetase IC50” value was found to be 1.71 μg/10 μg AA.

In the case of `COc1ccc(-c2nc(-c3c(F)cccc3F)[nH]c2-c2ccc(OC)cc2)cc1` [Compound 8, 2-(2,6-Difluorphenyl)-4,5-bis(4-methoxyphenyl)imidazole], the “Inhibition of platelet aggregation IC100” value in data set [2] was 0.012 μg/190 μg AA. For the same compound, the ED50 in data set [3] (setting [9]) is 4.9 µg/kg; in data set [1] (setting [8]), 6.8 mg/kg. The “Inhibition of PG-synthetase IC50” value on PG-synthetase is 0.13 μg/10 μg AA.

With `COc1ccc(-c2nc(-c3ccc(F)c(F)c3)[nH]c2-c2ccc(OC)cc2)cc1` [Compound 9, 2-(3,4-Difluorphenyl)-4,5-bis(4-methoxyphenyl)imidazole], the “Inhibition of platelet aggregation IC100” value in [2] was 0.006 μg/190 μg AA. Moreover, the values for the ED50 in [3] (setting [9]), in data set [5] and in data set [1] (setting [8]) were 11.5 µg/kg, 0.062 mg/kg and 1.9 mg/kg, respectively. Further, the “Inhibition of PG-synthetase IC50” value on PG-synthetase is 0.11 μg/10 μg AA. This compound returned a TD50 at 5 h in data set [4] of 45 mg/kg.

As for `COc1ccc(-c2nc(-c3cc(F)cc(F)c3)[nH]c2-c2ccc(OC)cc2)cc1` [Compound 10, 2-(3,5-Difluorphenyl)-4,5-bis(4-methoxyphenyl)imidazole], in [2], the “Inhibition of platelet aggregation IC100” value came out at 0.12 μg/190 μg AA. Further, the ED50 in [3] (setting [9]) turned out to be 9.7 µg/kg; in data set [1] (setting [8]), 10 mg/kg. Further, the “Inhibition of PG-synthetase IC50” value on PG-synthetase came to 0.38 μg/10 μg AA. Also, in the data set “in vivo”, the LD50 at 168 h is over 2000 mg/kg.

In the case of `COc1ccc(-c2nc(C(F)(F)F)[nH]c2-c2ccc(OC)cc2)cc1` [Compound 11, 2-Trifluormethyl-4,5-bis(4-methoxyphenyl)imidazole, reference compound], the “Inhibition of platelet aggregation IC100” value in data set [2] was determined as 0.06 μg/190 μg AA. For the same compound, the ED50 in data set [1] (setting [8]) turned out to be 75 mg/kg. For the same compound, the “Analgesic activity (in words)” value in [6] is “weaker analgesic activity”. Further, the “Toxicity (in words)” value in the data set “in vivo” is “higher toxicity than the compounds of the present invention”.

Consider `COc1ccc(-c2nc(C(C)C)[nH]c2-c2ccc(OC)cc2)cc1` [Compound 12, 2-Isopropyl-4,5-bis(4-methoxyphenyl)imidazole, reference compound], for which, in data set [1] (setting [8]), the ED50 worked out at 200 mg/kg. The “Analgesic activity (in words)” value in data set [6] is “much weaker analgesic activity than the compounds of the present invention”.

Turning to `COc1ccc2c(c1)c(CC(=O)O)c(C)n2C(=O)c1ccc(Cl)cc1` [Compound 13, Indomethacin, reference compound], in data set [2], the “Inhibition of platelet aggregation IC100” value is 1.19 μg/190 μg AA. Further, the ED50 amounted to 115 µg/kg in data set [3] (iv), 0.36 mg/kg in data set [5], 8 mg/kg in data set [1] and 28 mg/kg in data set [7]. Further, the “Inhibition of PG-synthetase IC50” value on PG-synthetase came to 0.65 μg/10 μg AA. Besides, in the data set on stomach ulcers, the “Ulcerogenic activity ED50” value was determined as 9.7 mg/kg.

Regarding `COc1ccc2cc([C@H](C)C(=O)O)ccc2c1` [Compound 14, Naproxen, reference compound], the “Inhibition of PG-synthetase IC50” value at PG-synthetase was 0.49 μg/10 μg AA. For the same compound, in the data set on stomach ulcers, the “Ulcerogenic activity ED50” value stood at 19.5 mg/kg.

Regarding `CC(=O)Oc1ccccc1C(=O)O` [Compound 15, Acetyl salicylic acid, reference compound], the “Inhibition of platelet aggregation IC100” value in [2] is 2.38 μg/190 μg AA. Moreover, the ED50 in [3] (iv) is 234 µg/kg; in [1] it was 100 mg/kg; in data set [7], 350 mg/kg. Moreover, at PG-synthetase, the “Inhibition of PG-synthetase IC50” value was found to be 7.61 μg/10 μg AA. For the same compound, in the data set on stomach ulcers, the “Ulcerogenic activity ED50” value turned out to be 340 mg/kg.

With `CC(C)(C)NCC(O)c1ccc(O)c(CO)c1` (stereo not shown) [Compound 16, Salbutamol, reference compound], in [3] (setting [9]), the ED50 stood at 16 µg/kg.
